Literature values in publication PMC3547486 (ACS Chemical Neuroscience, 2012).

Tested on: 5-HT release

Clc1cccc(N2CCNCC2)c1 [mCPP, m-chlorophenylpiperazine]
5-HT releasing activity (in words): potent 5-HT releaser
